Source: US20260022352A1, “COMPOSITIONS AND METHODS FOR PURIFYING […]” (North Carolina State University, priority 2023, published 2026)
Values joined by “and” are separate entries in the source; they are usually repeats but may differ in a detail not shown here. Equal values may be shown once. Where no end group is shown, it is not given here.

How the values were obtained:
LVV particles [1] = type: binding, lentivirus
LVV particles [2] = test system: LVV particles; design: species or system lentivirus
LVV particles [3] = test system: LVV particles; design: species or system lentivirus; remark: listed apart in the source

Row | Substance | binding capacity (summary) (LVV particles [1]) | LVV adsorbed (binding capacity) across cycles (LVV particles [2]) | DBC10% (vg/mL), real time qPCR (LVV particles [1]) | DBC10% (TU per mL of resin) (LVV particles [3])
1 | SRAFVGDADRD | ~6.24·10^9 TU per mL of resin | ~10^9 TU/mL |  | 
2 | SRAFVGDADRD-Poros: peptide SRAFVGDADRD (SEQ ID NO: 4) conjugated on aminated Poros resin (also: conjugated to aminated Poros resin, site not given here) |  |  | 6.89·10^9 vg/mL | 
3 | GKEAAFAA |  | > 10^9 TU/mL |  | 5.3 · 10^9 TU per mL of resin and 3.9 · 10^9 TU per mL of resin and 4.4 · 10^9 TU per mL of resin and 3.7 · 10^9 TU per mL of resin
4 | SFVRIGLSD | ~6.24·10^9 TU per mL of resin | ~10^9 TU/mL |  | 
